Assay results as given in patent US11596632B2, “JAK1 pathway inhibitors for the treatment of gastrointestinal disease” (Incyte Corporation, priority 2018, dated 2023).
“Also recorded” adds a separate entry of the source.

Tests used:
[1] = tested on: IL-6 stimulated phosphorylation of STAT3 in PBMCs; assay: IL-6 stimulated STAT3 phosphorylation in human PBMC; type: cell-based; conditions: read-out: in vitro IC50 for suppression of IL-6 stimulated phosphorylation of STAT3 in PBMCs (JAK1 inhibition)
Description: Two different assays can be used to understand the functional activity of JAK1 inhibition. The first is a standard cell based assay and the other using whole blood. The former is conducted using human peripheral blood mononuclear cells (PBMC); briefly, the cells are stimulated with IL-6 to increase JAK1 activity, which is measured via phosphorylated STAT3. As increasing concentrations of Compound 1 are added, a corresponding decrease in phosphorylated STAT3 is observed. This assay is appropriate to assess JAK1 activity and/or the inhibitory activity of Compound 1 in samples that are devoid of serum proteins, e.g., feces samples.

[2] = Ex vivo colon permeation study (Ussing diffusion chamber / tube), LSC; type: in vitro ADME, human; conditions: healthy and UC colon, 100 and 1000 nM, 1 h; LLOQ 2 times background (21 dpm)
Description: Methods: Compound 1 concentrations in plasma and feces (colonic surrogate) were determined following a single sustained release 25 mg oral dose (see, e.g., Example B, 25 mg SR composition). Compound 1 concentrations in plasma following a single 100 mg dose were also determined in a separate study (see, e.g., Example C for measuring concentrations of Compound 1 in plasma). Ex vivo study: Colon tissue samples from healthy and UC subjects (2/group) were mounted on a vertical Ussing diffusion chamber. [^14C]Compound 1 was applied to the apical side of the chamber at 100 and 1000 nM and incubated for 1 h. Samples were collected from the donor and receiver sides for determination of Compound 1 concentration. The colonic tissue was snap frozen for quantitative autoradiography.
A small piece of two colon samples from two healthy and UC subjects (total eight samples) were provided by Analytical Biological Services Inc. (Wilmington, Del.) and stored at −70° C. until use.
Dose formulations, i.e., 100 nM and 1000 nM, were prepared on the day of the experiment for all tissues in the study. [^14C]Compound 1 (1.06 mg) was dissolved in dimethyl sulfoxide (DMSO; 1.514 mL) to produce a 1 mM stock solution (0.7 mg/mL). […]
[^14C]Compound 1 concentrations in both donor and receiver sides were analyzed by LSC. The lower limit of quantitation (LLOQ) was determined as 2 times the background (21 dpm).

RA patients = assay: Clinical study in rheumatoid arthritis patients (ACR responses, ANC); type: in vivo, human
Description: However, the greatest inhibition appeared to be observed following 200 mg BID dosing. Also noteworthy is that the 100 mg QD dose had less TPO induced pSTAT3 inhibition than placebo.

[3] = tested on: IL-10 knockout mouse model of spontaneous colitis; assay: IL-10 knockout mouse model of spontaneous colitis; type: in vivo
Excerpt: The interleukin-10 (IL-10) knockout (KO) mouse model mirrors the multifactorial nature of inflammatory bowel disease (IBD), such as ulcerative colitis and Crohn's disease, as IL-10 KO mice, BALB/cAnNTac-1110^em7Tac, spontaneously develop colitis. Colitis in IL-10 KO mice results from an aberrant response of CD4^+ T helper 1-like T cells and an excessive secretion of the proinflammatory cytokines that signal through the Janus kinase/signal transducers and activators of transcription (JAK/STAT) pathway. Compound 1 is a potent JAK1 inhibitor with 22 to >500-fold selectivity for JAK2, JAK3 and TYK2, and is currently being investigated as a monotherapy in a clinical trial for moderate-to-severe ulcerative colitis.
Female IL-10 homozygote knockout mice on the BALB/c strain background were provided by Taconic (USA). From 6 weeks of age onwards, Compound 1 and vehicle (10 mL/kg) were administered by oral gavage twice daily. Diarrhea was quantified on a 0-3 rating scale, (0=normal; 1=soft but still formed; 2=very soft; 3=diarrhea). Mice were euthanized by CO2 asphyxiation and colon length and weight measured. Tissue pathology was scored on a scale of 0 to 10 based on the following criteria: Lymphocytic infiltrate in the mucosa and the gut associated lymphoid tissue located in the lamina propria/submucosa, mucosal erosions/ulcerations, and transmural inflammation. Body weight, stool consistency, fecal occult blood and rectal bleeding were scored. The incidence of rectal prolapse was recorded.

[4] = tested on: oxazolone-induced colitis in BALB/c mice; assay: Mouse oxazolone-induced colitis model; type: in vivo
[5] = 30 mg/kg oral twice daily, vs vehicle

N#CCC1(n2cc(-c3ncnc4[nH]ccc34)cn2)CN(C2CCN(C(=O)c3ccnc(C(F)(F)F)c3F)CC2)C1 [Compound 1, {1-{1-[3-Fluoro-2-(trifluoromethyl)isonicotinoyl]piperidin-4-yl}-3-[4-(7H-pyrrolo[2,3-d]pyrimidin-4-yl)-1H-pyrazol-1-yl]azetidin-3-yl}acetonitrile]
IC50 [1]: 0.058 µM
radioactivity / concentration in basolateral side (receiver compartment) [2]: no Compound 1 related radioactivity was detected from the receiver side
ACR20, ACR50, and ACR70 responses versus placebo (RA patients; 600 mg QD, Day 84 visit): statistically significant differences in ACR20, ACR50, and ACR70 responses
decreased ANC (RA patients; RA patients): several cases of decreased ANC but no dose-dependent trend was observed
colitis / disease onset ([3]; 30 mg/kg oral twice daily): inhibited disease onset; also recorded: significantly (p<0.001) delayed colitis onset
disease-associated weight loss ([3]; 30 mg/kg oral twice daily): modulated disease-associated weight loss
colon structural pathology [3, 5]: significant (p<0.01) reduction in colon structural pathology
cumulative clinical disease score (symptoms) [3, 5]: reduces symptoms; also recorded: significantly (p<0.0001) reduced
incidence of rectal prolapse [3, 5]: significantly (p<0.01) lower
lymphocytic infiltration and transmural inflammation [3, 5]: significantly (p<0.01) decreased
gene expression in the colon ([3]; oral, vs vehicle): differential gene expression profiles in the colon
colon morphology ([3]; systemic (oral) delivery): significant protective effects on colon morphology
colon shortening ([4]; 3 mg/kg IC BID): significantly ameliorated colon shortening; also recorded: significantly (p<0.05) reduced colon shortening
macroscopic tissue pathology ([4]; 30 mg/kg BID oral): ameliorating macroscopic tissue pathology
normalized colon weight (inflammatory swelling) ([4]; 30 mg/kg BID oral): reducing normalized colon weight
recovery from diarrhea and rectal bleeding (symptoms) ([4]; 30 mg/kg BID oral): reduces symptoms; also recorded: efficacious in accelerating recovery from diarrhea and rectal bleeding
colon shortening ([4]; 30 mg/kg PO BID): significantly ameliorated colon shortening; also recorded: significant (p<0.05) reduction in colon shortening
stool consistency and fecal occult blood scoring ([4]; twice daily, orally or intracolonically, vs vehicle): significantly ameliorated stool consistency and reduced fecal occult blood scoring
